Patent publication US20250009743A1, “METHODS OF TREATING CANCERS USING STING AGONISTS” (Dana-Farber Cancer Institute, Inc., priority 2021, published 2025)

Experiments:
PBM-R tumors = assay: PBM-R (PARPi-resistant) ovarian tumor burden in syngeneic FVB/NJ mice; format: in vivo, mouse; conditions: for PBM-R tumor growth inhibition: 14 days, olaparib 50 mg/kg i.p. daily, MSA-2 25 mg/kg i.p. three times a week, FIG. 23A
Description: The PBM and PBM-R tumor cells were transplanted orthotopically into syngeneic FVB/NJ mice to generated tumors for drug evaluation. Tumor-bearing mice were equivalently divided into control and treatment groups according to the luminescent intensity as previously described (Ding et al., 2018; Cell Rep 25, 2972-2980.e2975). Olaparib (AZD2281) was administered daily by i.p. injection at dose of 50 mg/kg body weight. Anti-PD-1 antibody (clone, 332.8H3) was diluted in PBS (250 μg/100 μl/mouse) and injected by i.p. every 3 days. MSA-2 was prepared by diluting 50 mg/ml stock in DMSO with PBS (pH 8.0) and administered every other day (three times a week, two weeks on followed by one week off) by i.p. injection at dose of 25 mg/kg body weight. The endpoints were determined by tumor burden and ascites.

[1] = tested on: BMDMs generated from FVB/NJ mice; assay: Polarization of mouse BMDMs cultured in PBM / PBM-R conditioned medium; format: cell-based
Description: For ex vivo culture of mouse macrophages, bone marrow cells were isolated from FVB/NJ mice and cultured in DMEM containing 10% FBS, 55 μM 2-Mercaptoethanol and 20 ng/ml M-CSF. BMDMs (bone marrow derived macrophages) were harvested on day 7 and further cultured in 2.0 ml control medium (90% DMEM, 10% FBS, 55 μM 2-Mercaptoethanol and 5 ng/ml M-CSF) described above or the medium containing 50% tumor cell conditioned medium for 72 hrs before analysis. For the tumor cell conditioned medium, about 3×10^5 tumor cells were cultured in 6-well plate for 24 hrs and then treated with DMSO or olaparib. After 24 hrs incubation with DMSO or olaparib, the tumor cells were washed twice with PBS and cultured in DMEM containing 10% FBS for 48 hrs. The tumor cell conditioned medium was collected by centrifugation at 1,500 g for 5 min at 4° C. to remove all the debris and cells. For the cytokine blocking experiment, monoclonal antibodies that specific to each cytokine were added to the tumor cell conditioned medium before it was applied to culture macrophages.

BP tumors = assay: Flow cytometry of intratumoral immune cells of BP tumors; format: in vivo, mouse
Description: To obtain single-cell suspensions, tumors were excised, minced and dissociated in collagenase/hyaluronidase buffer [DMEM with 5% FBS, 10 mM HEPES (Gibco), 100 μg/mL penicillin-streptomycin, 20 μg/mL DNase I (StemCell) and 1× collagenase/hyaluronidase (StemCell)] for 45 min at 37° C. with agitation, followed by treatment with ammonium-chloride-potassium (ACK) buffer (Lonza) for red blood cell (RBC) lysis, and strained through a 70 μm strainer to remove undigested tumor tissues. Spleens and tumor-draining lymph nodes (TDLNs) were mechanically dissociated by passing the tissues through a 70 μm strainer using the plunger of a 5 ml syringe, and RBCs were lysed as described above.
For flow cytometry analyses of tumor and TDLN samples, single-cell suspensions were obtained as described above (Tissue Digestion). Cells were stained in cold FACS buffer (PBS containing 0.2% BSA and 5 mM EDTA) with LIVE/DEAD Fixable Aqua Dead Cell Stain (Thermo Fisher) for 30 min on ice, followed by blocking with anti-CD16/32 (BioLegend) for 20 min on ice. Cells were then incubated in FACS buffer for 30 min on ice with antibodies specific to CD45 (clone 30-F11, BioLegend), TCR β chain (clone H57-597, BioLegend), CD38 (clone 145-2C11, BioLegend), CD4 (clone RM4-5, BioLegend), CD8a (clone 53-6.7, BioLegend), PD-1 (clone 29F.1A12, BioLegend), CD44 (clone IM7, BioLegend), CD62L (clone MEL-14, BioLegend), IFN-γ (clone XMG1.2, BioLegend), TNF-α (clone MP6-XT22, BioLegend), Granzyme B (clone NGZB, eBioscience), CD11c (clone N418, BioLegend), I-A/I-E (clone M5/114.15.2, BioLegend), CD80 (clone 16-10A1, BioLegend), CD86 (clone GL-1, BioLegend), CD103 (clone 2E7, BioLegend), CD11b (M1/70, BioLegend), F4/80 (clone BM8, BioLegend), phospho-TBK1 (Ser172) (clone D52C2, Cell Signaling Tech.) or phospho-IRF-3 (Ser396) (clone D601M, Cell Signaling Tech.). For intracellular staining, Foxp3/Transcription Factor Staining Buffer Set (eBioscience, #00-5523-00) was used for fixation and permeabilization. For cytokine analysis, cells were stimulated with Leukocyte Activation Cocktail with protein transport inhibitor Brefeldin A (BD Biosciences, #550583) at 37° C. for 4 hours prior to the staining. Analysis of ϵ-HA2X (Ser139) was performed according to manufacturer's instructions. Briefly, ice-cold 70% ethanol (Decon) was added dropwise to the cell pellet while vortexing. Cells were then incubated at −20° C. for 1 hour and washed three times with cold staining buffer. For the staining, 5 μL p-HA2X antibody (clone 2F3, BioLegend) was added to approximately 1×10^6 cells in 100 μL staining buffer and incubated at 4° C. for 30 min. For Annexin V and 7-AAD staining, cells were detached with accutase (Sigma, #A6964). […] All data were analyzed using FlowJo software.

human BMDMs = assay: Polarization of human BMDMs cultured in CM from ovarian PDXs; format: cell-based
Description: For ex vivo culture of human macrophages, human BMDMs were generated from bone marrow mononuclear cells (BMMs) (CAT #70001) obtained from […] Technologies. Briefly, BMMs were cultured in DMEM containing 10% FBS, 55 μM 2-Mercaptoethanol (CAT #21985023, Thermo Fisher) and 50 ng/ml M-CSF for 5-7 days with media replacement every 3 days to obtain matured macrophages (BMDMs). […] Flow cytometry analysis was preformed to analyze the phenotypes of macrophages for both mouse and human BMDMs.

Row | SMILES | PBM-R tumor growth inhibition (PBM-R tumors) | response of PBM-R-shStat3 tumors in vivo (PBM-R tumors; PBM-R cells with STAT3 knockdown, FIG. 19I) | PBM-R tumor response in vivo (PBM-R tumors; orthotopically re-transplanted to syngeneic host mice, FIG. 15E) | M2-like TAM polarization of BMDMs by CM from olaparib-treated PBM cells (PBM-OLA-CM) ([1]; FIG. 19E) | population of tumor-associated macrophages (TAMs) (BP tumors; 21 days of treatment) | CD8+ T cells and effector CD8+ T cells in tumors (BP tumors; after seven days of treatment) | proportion of PD-1+CD8+ T cells (BP tumors; after seven days of treatment) | M2-like polarization induced by ovarian PDXs (human BMDMs; CM of olaparib-treated PDXs, FIG. 25C) | production of anti-tumor cytokines (IFNg, Granzyme B, TNFa) in CD8+ and CD4+ T cells (BP tumors; after 21 days of treatments, DMXAA intratumoral, FIG. 9B-9C) | PBM-R tumor weight (PBM-R tumors; MSA-2 25 mg/kg i.p. three times per week with olaparib 50 mg/kg + anti-PD-1, two weeks, FIG. 14D) | M1/M2 ratio ([1]; BMDMs in 50% PBM-R-CM, ADU-S100 10 μM or MSA-2 5 ug/ml, two days, FIG. 21B) | M2-like macrophage polarization induced by ovarian PDXs (human BMDMs; MSA-2 added, FIG. 25E)
1 | O=C(c1cc(Cc2n[nH]c(=O)c3ccccc23)ccc1F)N1CCN(C(=O)C2CC2)CC1 [olaparib] | little or no effect | became sensitive | indeed resistance to PARPi in vivo | stronger effect on M2-like TAM polarization of BMDMs than PBM-CM | not significantly affected | not significantly changed | increased | further enhance | – | – | – | –
2 | Cc1ccc2c(=O)c3cccc(CC(=O)O)c3oc2c1C [DMXAA, 5,6-dimethyl-xanthenone-4-acetic acid] | – | – | – | – | – | – | – | – | strongly up-regulated | – | – | –
3 | COc1cc2cc(C(=O)CCC(=O)O)sc2cc1OC [MSA-2] | little or no effect | – | – | – | – | – | – | – | – | sensitizes PARPi-resistant tumors to olaparib in vivo | significantly increased | reversed
